Assay [1] deals with MCP-1. Nature of the assay: Quantitative RT-PCR of MCP-1 in thoracic aorta. The assay is classed as in vivo, mice. The note with it: normalized versus β-actin. The text has this: (§1) RNA was extracted from thoracic aortas, and cDNA was generated by standard methods. PCR Primers for MCP-1 and for actin were as described in C. Hans et al., “Thieno[2,3-c]isoquinolin-5-one (TIQ-A), a potent poly(ADP-ribose) polymerase inhibitor, promotes atherosclerotic plaque regression in high fat diet-fed ApoE-deficient mice: effects on inflammatory markers and lipid content,” J. Pharm. Exp. Ther., vol. 329, pp. 150-158 (2009, published online Jan. 5, 2009). Amplification, detection, and data analysis were performed with the iCycler real-time PCR system (Bio-Rad Laboratories, Hercules, Calif.).
Several pathways may play a role in the regression of plaques, including some that interfere with the recruitment and retention of monocytes, macrophages and foam cells, cells that appear to be required for the maintenance of advanced plaques. In particular, the continuing recruitment of macrophages into lesions is considered a major factor in maintaining the size and complexity of atherosclerotic plaques. […] To confirm that the decrease in CD68-positive cells was associated with reduced expression of chemotactic factors, we used quantitative RT-PCR to monitor the effect of TIQ-A on MCP-1 expression. We measured transcription of the MCP-1 gene in the thoracic aorta using primers specific for murine MCP-1. Measured values were normalized versus measured levels of transcription of the β-actin gene.

In assay [2] the test system is C57BL/6 ApoE−/− mice. Description: Histology, trichrome staining and immunohistochemistry (SMA, CD68, MCP-1) of atherosclerotic plaques. The assay is classed as in vivo. The text has this:
C57BL/6 ApoE^−/− mice (Jackson Laboratory, Bar Harbor, Me.) were housed and bred in a pathogen-free animal care facility at LSUHSC (New Orleans, La.), and were given full access to laboratory rodent chow and water. Principles of laboratory animal care were followed (NIH publication No. 86-23, revised 1985). Experimental protocols were approved by the LSUHSC Animal Care and Use Committee. The animals were divided into six groups to provide proper controls, and to allow calculation of the significance of the results. All Groups were ApoE^−/− mice. The mice were fed a regular diet or a high fat diet for 12 or 16 weeks; in some cases mice that had been fed a high fat diet for 12 weeks were switched to a regular diet for the final 4 weeks (16 weeks total). Some mice were given injections of TIQ-A during the final four weeks, while others were injected with vehicle as controls:
The high-fat diet (Harlan Teklad, Madison, Wis.) contained 21% fat by weight (0.15% cholesterol). The regular diet was normal laboratory rodent chow. Controls were given i.p. injections of vehicle three times per week, during the final four weeks. Experimental Groups received i.p. injections of the PARP inhibitor thieno[2,3-c]isoquinolin-5-one (TIQ-A) (Sigma-Aldrich, St Louis, Mo.) at the rate of 3 mg/kg, three times per week, during the last 4 weeks. At the conclusion of each protocol, the mice were fasted, anesthetized with ketamine/xylazine (60 and 3 mg/kg, respectively), and blood was drawn for serum preparation.
Perfusion-fixed aortas were dissected and prepared either for en face, Oil-Red-O staining using standard protocols, or for embedding in paraffin. Tissues were sectioned and were stained following standard protocols with haematoxylin and eosin (H&E), trichrome staining, or immunohistochemistry (IHC). Lesion areas were assessed as described in K. Oumona-Benachour et al. (2007). IHC used antibodies against murine smooth muscle actin (SMA) (Santa Cruz Biotechnologies, Santa Cruz, Calif.), or antibodies against CD68. Immunoreactivity was assessed in captured images of immunostained stained sections as described in K. Oumona-Benachour et al. (2007).

Assay [3] concerns C57BL/6 mice. Nature of the assay: Mucus production in airways of OVA-challenged mice (PAS staining, histological mucin index). The assay is classed as in vivo. The method, then:
Mice were bred in a pathogen-free facility at the Louisiana State University Health Science Center (LSUHSC), New Orleans, La., and were given unlimited access to sterilized chow and water. Animal maintenance, experimental protocols, and procedures were approved by the LSUHSC Animal Care & Use Committee. C57BL/6 mice were purchased from Jackson Laboratories (Bar Harbor, Me.). Six-week old C57BL/6 mice (n z 5) were sensitized with two, 100 μg i.p. injections of Grade V chicken ovalbumin (OVA) (Sigma-Aldrich, St. Louis Mo.), mixed with 2 mg aluminum hydroxide in saline. The two injections were given seven days apart. One week after the second sensitization the mice were placed in a Plexiglas chamber and challenged with aerosolized ovalbumin (3% OVA in saline, generated by a Bennett nebulizer, DeVilbiss, Pa.). The challenged mice were held in the chamber with the aerosolized OVA for 30 min. Additional groups of mice were treated by the same protocol, except that they received 6 mg/kg TIQ-A (i.p.) 2 hours prior to challenge, 1 hour post-challenge, or 6 hours post-challenge with OVA. Control groups were neither sensitized, nor challenged. The mice used in each experiment were from the same litter or the same family. Mice were allowed to recover, and then killed by CO2 asphyxiation after 24 or 48 hours. The sacrificed mice were subjected to bronchio-alveolar lavage (BAL), or their lung tissues were dissected, fixed, and processed for histological analysis.
A final volume of 5 ml saline was used in BAL to assess inflammatory cells (48 hours post OVA-challenge), or 1 ml saline was used to assess cytokines or IgE (24 hours post OVA-challenge). Formalin-fixed lungs were sectioned and subjected to haematoxylin and eosin (H&E), Periodic Acid-Schiff (PAS)-staining using standard protocols. Mucin was assessed essentially as described in L. Whittaker et al., Am. J. Respir. Cell. Mol. Biol., vol. 27, pp. 593-602 (2002). […] OVA-specific IgE was quantified by a sandwich ELISA (Serotec, Raleigh, N.C.) essentially as described in Oumona et al. (2006).

Assay [4] concerns CCR2. Nature of the assay: Expression of the MCP-1 receptor CCR2. The note with it: TIQ-A-treated mice. The assay is classed as in vivo.
For assay [5], the system named is mice. The note with it: administration prior to allergen challenge; cited from earlier work.
The test system of assay [6] is ICAM-1. Nature of the assay: Quantitative RT-PCR of ICAM-1 in thoracic aorta. The assay is classed as in vivo. The note with it: thoracic aortas of Group 6 mice.
Source text: as §1
In addition to MCP-1, the recruitment and their retention of monocytes and macrophages within atherosclerotic plaques requires the expression of adhesion molecules by endothelial and intimal cells. In particular, the adhesion molecule ICAM-1 expression is expressed in the later stages of plaques.

Assay [7] relates to OVA-specific IgE. Nature of the assay: OVA-specific IgE in BAL fluid (sandwich ELISA). The assay is classed as in vivo, mice. The note with it: 24 hours post-challenge. The method, then:
Mice were bred in a pathogen-free facility at the Louisiana State University Health Science Center (LSUHSC), New Orleans, La., and were given unlimited access to sterilized chow and water. Animal maintenance, experimental protocols, and procedures were approved by the LSUHSC Animal Care & Use Committee. C57BL/6 mice were purchased from Jackson Laboratories (Bar Harbor, Me.). Six-week old C57BL/6 mice (n z 5) were sensitized with two, 100 μg i.p. injections of Grade V chicken ovalbumin (OVA) (Sigma-Aldrich, St. Louis Mo.), mixed with 2 mg aluminum hydroxide in saline. The two injections were given seven days apart. One week after the second sensitization the mice were placed in a Plexiglas chamber and challenged with aerosolized ovalbumin (3% OVA in saline, generated by a Bennett nebulizer, DeVilbiss, Pa.). The challenged mice were held in the chamber with the aerosolized OVA for 30 min. […]
A final volume of 5 ml saline was used in BAL to assess inflammatory cells (48 hours post OVA-challenge), or 1 ml saline was used to assess cytokines or IgE (24 hours post OVA-challenge). […] Mucin was assessed essentially as described in L. Whittaker et al., Am. […] OVA-specific IgE was quantified by a sandwich ELISA (Serotec, Raleigh, N.C.) essentially as described in Oumona et al. (2006).
Background: An ELISA detects its analyte on a solid surface through an enzyme-linked reagent.

As to `O=C1N=C2SCC=C2c2ccccc21` [TIQ-A, thieno[2,3-c]isoquinolin-5-one], the “Expression of MCP-1 (RT-PCR)” value in assay [1] is given as “significantly reduced”. In assay [2] (Group 6), the CD68 immunoreactivity entry was “significantly reduced”, the “Collagen density by trichrome staining” value is on record as “significant increase in collagen density”, the “Fibrous cap by trichrome staining” value is given as “much thicker fibrous cap” and the “Foam cells in plaques” value is listed as “fewer foam cells”. In assay [2] (Group 6), the “Plaque size by microscopic examination” value is “much smaller” and the “Smooth muscle actin immunoreactivity” value was “significant increase”. The “MCP-1 immunoreactivity of plaques” value in assay [2] (TIQ-A-treated mice) was “decrease”. The “PAS-positive goblet cells in lungs” value in assay [3] (TIQ-A one or six hours after challenge) is recorded as “nearly absent”. For the same compound, the “Mucus production (histological mucin index)” value in assay [3] (TIQ-A prior to OVA challenge) is given as “significantly reduced”. The “Mucus production (histological mucin index)” value in assay [3] (post-challenge treatment with TIQ-A) is “effectively blocked mucus production completely”. Also, the “Expression of the MCP-1 receptor, CCR2” value in assay [4] is reported as “no difference”. In assay [5], the “Eosinophil infiltration and associated mucus production in lung airways” value was “suppressed”; the “Th2 cytokines, including IL-4 IL-5 and IL-13” value is given as “suppressed”. The “Expression of ICAM-1 (quantitative RT-PCR)” value in assay [6] is “significantly reduced”. In assay [7] (TIQ-A after OVA challenge), the IgE production result is on record as “almost completely blocked”. For the same compound, in assay [7] (TIQ-A prior to OVA challenge), the “Levels of OVA-specific IgE in BAL fluid” value is “moderate reduction”.

The values are drawn from patent publication US20110028420A1, “Regression of Established Atherosclerotic Plaques, and Treating Sudden-Onset Asthma Attacks, using PARP Inhibitors” (priority 2008, published 2011).
